Source: patent US20230085307A1, “PYRIDAZINONE COMPOUND AND HERBICIDE” (NISSAN CHEMICAL CORPORATION, priority 2019, published 2023)

What was measured:
[1] = tested on: late watergrass; assay: Test Example 1: herbicidal activity, application before weed generation under submerged conditions (Table 16, symbol A); assay type: in vivo, late watergrass (Echinochloa oryzicola); conditions: 80 g/ha applied herbicide
In short: (§1)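 Alluvial soil was flooded to 4 cm depth, weed seeds were sown mixed and 2.5-leaf rice seedlings were transplanted. On sowing day, the compound's emulsion, diluted in water to a set dose, was applied to the water surface. Plants grew at 25–30 °C and were scored 0–5 after three weeks.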

[2] = tested on: Japanese bulrush; assay: Test Example 2: herbicidal activity, application during weed generation under submerged conditions (Table 17, symbol B); assay type: in vivo, Japanese bulrush (Schoenoplectus juncoides); conditions: AAH 80 g/ha; application during weed generation, submerged conditions
In short: (§2)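 Alluvial soil in Wagner pots was flooded to 4 cm depth and sown with the three weeds together; pots were kept in a greenhouse at 25° C. to 30° C. At the one to two leaf stage, an emulsion formulation diluted in water to a set rate went onto the water surface; scored three weeks later.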

[3] = tested on: Japanese bulrush; assay: Test Example 1: herbicidal activity, application before weed generation under submerged conditions (Table 16, symbol B); assay type: in vivo, Japanese bulrush (Schoenoplectus juncoides); conditions: 80 g/ha applied herbicide
In short: as §1

[4] = tested on: late watergrass; assay: Test Example 2: herbicidal activity, application during weed generation under submerged conditions (Table 17, symbol A); assay type: in vivo, late watergrass (Echinochloa oryzicola); conditions: AAH 80 g/ha; application during weed generation, submerged conditions
In short: as §2

[5] = tested on: oval-leafed pondweed; assay: Test Example 1: herbicidal activity, application before weed generation under submerged conditions (Table 16, symbol C); assay type: in vivo, oval-leafed pondweed (Monochoria vaginalis); conditions: 80 g/ha applied herbicide
In short: as §1

[6] = tested on: oval-leafed pondweed; assay: Test Example 2: herbicidal activity, application during weed generation under submerged conditions (Table 17, symbol C); assay type: in vivo, oval-leafed pondweed (Monochoria vaginalis); conditions: AAH 80 g/ha; application during weed generation, submerged conditions
In short: as §2

Structure (SMILES): Cc1nn(C)c(=O)c(-c2c(-c3ccccc3)sc3ccc(-c4ccccc4)cc23)c1O [2-166]
- Herbicidal effect on A: late watergrass (grade 0-5) [1]: 2 (Herbicidal rate of 20% or more and less than 40%)
- herbicidal effect rating, B: Japanese bulrush [2]: 3 (Herbicidal rate of 40% or more and less than 70%)
- Herbicidal effect on B: Japanese bulrush (grade 0-5) [3]: 0 (Herbicidal rate of 5% or less (almost no effect))
- herbicidal effect rating, A: late watergrass [4]: 0 (Herbicidal rate of 5% or less (almost no effect))
- Herbicidal effect on C: oval-leafed pondweed (grade 0-5) [5]: 0 (Herbicidal rate of 5% or less (almost no effect))
- herbicidal effect rating, C: oval-leafed pondweed [6]: 0 (Herbicidal rate of 5% or less (almost no effect))
